Here are results for one molecule from publication PMC6131539, “Behavioral Effects of a Potential Novel TAAR1 Antagonist” (Frontiers in Pharmacology, 2018).

The target in one test is T1, 5-HT7 (Homo sapiens, UniProt P34969).
T1 construct: purchased NIMH Psychoactive Drug Screening Program (PDSP), University of North Carolina-Chapel Hill
In words: PDSP binding, primary screen. The protocol:
(§1) This was achieved through the identification of potential pharmacological targets of compound 22 using the Psychoactive Drug Screening Program (PDSP) at University of North Carolina-Chapel-Hill. PDSP provides a platform for screening novel psychoactive compounds on human proteins expressed in the central nervous system in order to identify their biological target(s) ([Besnard et al., 2012]). Binding studies were done on 47 targets at a single dose of compound 22 (10 μM; Supplementary Table S1). This primary screen yielded a total of 5 hits for compound 22 (Table 2). These hits were the serotonin, dopamine, and norepinephrine transporters, as well as the sigma 1 and sigma 2 receptors.
(§2) Supplemental Table 1. Compound 22 binding studies from PDSP: primary screen for compound 22 and subsequent hits (50% cut-off, hits highlighted in red). The primary screen was performed by PDSP as described previously (Besnard et al., 2012).

In the next test the target is T2, SERT (Homo sapiens, UniProt P31645).
T2 construct: purchased NIMH Psychoactive Drug Screening Program (PDSP), University of North Carolina-Chapel Hill
In words: PDSP binding, primary screen. The protocol:
as §1, §2

For a further test, the target named is T3, D4 (Homo sapiens, UniProt P21917).
T3 construct: purchased NIMH Psychoactive Drug Screening Program (PDSP), University of North Carolina-Chapel Hill
T3 sequence (P21917 whole entry): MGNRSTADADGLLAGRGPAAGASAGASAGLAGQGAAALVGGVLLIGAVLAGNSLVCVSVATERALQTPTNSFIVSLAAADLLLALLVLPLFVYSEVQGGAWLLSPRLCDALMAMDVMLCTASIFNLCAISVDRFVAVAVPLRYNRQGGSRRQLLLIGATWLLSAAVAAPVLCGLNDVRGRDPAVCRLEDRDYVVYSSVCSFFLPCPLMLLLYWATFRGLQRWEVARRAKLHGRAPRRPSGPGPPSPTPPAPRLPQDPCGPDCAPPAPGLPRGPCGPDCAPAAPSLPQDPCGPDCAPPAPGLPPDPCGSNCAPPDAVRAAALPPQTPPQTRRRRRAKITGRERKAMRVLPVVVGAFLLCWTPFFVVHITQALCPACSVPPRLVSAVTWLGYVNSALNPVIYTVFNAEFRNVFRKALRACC
Kind of test: PDSP binding, primary screen. On the procedure:
as §1, §2

The next test deals with T4, Alpha1A (Homo sapiens, UniProt P35348).
T4 construct: purchased NIMH Psychoactive Drug Screening Program (PDSP), University of North Carolina-Chapel Hill
T4 sequence (P35348 whole entry): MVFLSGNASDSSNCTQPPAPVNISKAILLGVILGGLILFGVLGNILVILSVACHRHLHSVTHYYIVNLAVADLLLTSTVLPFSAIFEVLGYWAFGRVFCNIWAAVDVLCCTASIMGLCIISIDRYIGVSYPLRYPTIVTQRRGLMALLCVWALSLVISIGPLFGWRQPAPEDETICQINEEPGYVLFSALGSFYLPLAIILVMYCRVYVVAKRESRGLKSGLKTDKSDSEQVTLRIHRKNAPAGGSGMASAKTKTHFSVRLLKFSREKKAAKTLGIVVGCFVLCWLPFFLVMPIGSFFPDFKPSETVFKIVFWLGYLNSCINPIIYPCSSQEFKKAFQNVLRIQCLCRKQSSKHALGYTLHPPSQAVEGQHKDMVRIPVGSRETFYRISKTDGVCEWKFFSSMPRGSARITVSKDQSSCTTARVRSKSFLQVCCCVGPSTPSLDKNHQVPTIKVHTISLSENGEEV
Kind of test: PDSP binding, primary screen. On the procedure: as §1, §2

A further test has as its target T5, Alpha2B (Homo sapiens, UniProt P18089).
T5 construct: purchased NIMH Psychoactive Drug Screening Program (PDSP), University of North Carolina-Chapel Hill
In words: PDSP binding, primary screen. The protocol:
as §1, §2

A further test concerns the target T6, D1 (Homo sapiens, UniProt P21728).
T6 construct: purchased NIMH Psychoactive Drug Screening Program (PDSP), University of North Carolina-Chapel Hill
Kind of test: PDSP binding, primary screen. On the procedure:
as §1, §2

For a further test, the target named is T7, D2 (Homo sapiens, UniProt P14416).
T7 construct: purchased NIMH Psychoactive Drug Screening Program (PDSP), University of North Carolina-Chapel Hill
T7 sequence (P14416 whole entry): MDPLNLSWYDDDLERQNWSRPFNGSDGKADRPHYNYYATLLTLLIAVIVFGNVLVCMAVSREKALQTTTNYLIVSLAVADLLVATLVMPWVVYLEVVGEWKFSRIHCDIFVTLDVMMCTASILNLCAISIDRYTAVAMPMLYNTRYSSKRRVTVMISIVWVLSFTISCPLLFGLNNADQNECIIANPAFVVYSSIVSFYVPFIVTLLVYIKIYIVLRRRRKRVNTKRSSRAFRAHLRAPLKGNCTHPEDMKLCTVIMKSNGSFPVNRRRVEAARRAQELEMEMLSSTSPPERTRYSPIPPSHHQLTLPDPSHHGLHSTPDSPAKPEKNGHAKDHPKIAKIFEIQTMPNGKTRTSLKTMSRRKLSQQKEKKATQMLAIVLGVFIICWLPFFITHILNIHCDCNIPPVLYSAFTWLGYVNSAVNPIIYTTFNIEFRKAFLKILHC
Kind of test: PDSP binding, primary screen. The protocol: as §1, §2

For the next test, the target named is T8, M2 (Homo sapiens, UniProt P08172).
T8 construct: purchased NIMH Psychoactive Drug Screening Program (PDSP), University of North Carolina-Chapel Hill
In words: PDSP binding, primary screen. On the procedure:
as §1, §2

In a further test the target is T9, M3 (Homo sapiens, UniProt P20309).
T9 construct: purchased NIMH Psychoactive Drug Screening Program (PDSP), University of North Carolina-Chapel Hill
T9 sequence (P20309 whole entry): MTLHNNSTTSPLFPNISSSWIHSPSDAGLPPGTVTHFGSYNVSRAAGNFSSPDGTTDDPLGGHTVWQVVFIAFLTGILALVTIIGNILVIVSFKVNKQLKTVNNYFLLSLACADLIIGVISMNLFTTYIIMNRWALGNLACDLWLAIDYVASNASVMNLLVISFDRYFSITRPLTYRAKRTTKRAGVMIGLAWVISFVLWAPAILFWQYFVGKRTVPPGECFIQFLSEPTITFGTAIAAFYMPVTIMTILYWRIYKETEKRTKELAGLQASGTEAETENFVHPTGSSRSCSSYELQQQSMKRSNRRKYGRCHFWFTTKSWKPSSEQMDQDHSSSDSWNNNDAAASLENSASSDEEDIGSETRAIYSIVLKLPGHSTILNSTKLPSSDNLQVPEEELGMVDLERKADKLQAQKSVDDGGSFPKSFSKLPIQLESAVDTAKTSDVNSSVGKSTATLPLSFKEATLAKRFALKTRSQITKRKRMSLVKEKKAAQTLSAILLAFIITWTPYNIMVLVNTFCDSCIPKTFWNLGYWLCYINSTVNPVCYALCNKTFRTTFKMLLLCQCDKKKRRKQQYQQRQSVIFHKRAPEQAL
In words: PDSP binding, primary screen. On the procedure: as §1, §2

In a further test the target is T10, M4 (Homo sapiens, UniProt P08173).
T10 construct: purchased NIMH Psychoactive Drug Screening Program (PDSP), University of North Carolina-Chapel Hill
In words: PDSP binding, primary screen. On the procedure:
as §1, §2

The target in the next test is T11, H1 (Homo sapiens, UniProt P35367).
T11 construct: purchased NIMH Psychoactive Drug Screening Program (PDSP), University of North Carolina-Chapel Hill
Kind of test: PDSP binding, primary screen. The protocol:
as §1, §2

Another test deals with T12, KOR (Homo sapiens, UniProt P41145).
T12 construct: purchased NIMH Psychoactive Drug Screening Program (PDSP), University of North Carolina-Chapel Hill
Kind of test: PDSP binding, primary screen. The protocol:
as §1, §2

The target of another test is T13, Sigma 1 (Homo sapiens, UniProt Q99720).
T13 construct: purchased NIMH Psychoactive Drug Screening Program (PDSP), University of North Carolina-Chapel Hill
T13 sequence (Q99720 whole entry): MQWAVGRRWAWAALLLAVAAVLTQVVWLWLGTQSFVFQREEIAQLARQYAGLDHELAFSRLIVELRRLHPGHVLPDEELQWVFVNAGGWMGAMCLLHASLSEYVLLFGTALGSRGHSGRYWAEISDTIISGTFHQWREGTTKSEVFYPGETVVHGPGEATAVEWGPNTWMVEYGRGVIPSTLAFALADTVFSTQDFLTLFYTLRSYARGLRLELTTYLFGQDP
In words: PDSP binding, primary screen. The protocol:
as §1, §2

For a further test, the target named is T14, 5-HT3 (Homo sapiens, UniProt P46098).
T14 construct: purchased NIMH Psychoactive Drug Screening Program (PDSP), University of North Carolina-Chapel Hill
Kind of test: PDSP binding, primary screen. The protocol: as §1, §2

The target in another test is T15, 5-HT2A (Homo sapiens, UniProt P28223).
T15 construct: purchased NIMH Psychoactive Drug Screening Program (PDSP), University of North Carolina-Chapel Hill
In words: PDSP binding, primary screen. On the procedure: as §1, §2

For a further test, the target named is T16, D5 (Homo sapiens, UniProt P21918).
T16 construct: purchased NIMH Psychoactive Drug Screening Program (PDSP), University of North Carolina-Chapel Hill
T16 sequence (P21918 whole entry): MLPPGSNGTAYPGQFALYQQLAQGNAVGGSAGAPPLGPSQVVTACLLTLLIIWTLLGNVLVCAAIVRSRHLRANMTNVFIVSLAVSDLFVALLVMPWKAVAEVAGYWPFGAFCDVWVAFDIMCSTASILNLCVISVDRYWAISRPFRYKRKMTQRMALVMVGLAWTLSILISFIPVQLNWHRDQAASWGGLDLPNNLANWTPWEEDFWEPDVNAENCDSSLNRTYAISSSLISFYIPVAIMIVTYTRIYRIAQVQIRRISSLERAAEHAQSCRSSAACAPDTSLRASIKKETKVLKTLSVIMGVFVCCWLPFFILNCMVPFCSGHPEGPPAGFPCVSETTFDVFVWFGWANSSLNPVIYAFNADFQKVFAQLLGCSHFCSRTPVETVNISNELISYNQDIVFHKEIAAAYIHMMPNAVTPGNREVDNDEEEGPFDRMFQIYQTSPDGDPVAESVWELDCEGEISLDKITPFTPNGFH
Kind of test: PDSP binding, primary screen. The protocol: as §1, §2

The next test concerns the target T17, Alpha1B (Homo sapiens, UniProt P35368).
T17 construct: purchased NIMH Psychoactive Drug Screening Program (PDSP), University of North Carolina-Chapel Hill
Kind of test: PDSP binding, primary screen. The protocol:
as §1, §2

The next test concerns the target T18, 5-HT2C (Homo sapiens, UniProt P28335).
T18 construct: purchased NIMH Psychoactive Drug Screening Program (PDSP), University of North Carolina-Chapel Hill
Kind of test: PDSP binding, primary screen. On the procedure: as §1, §2

The target of another test is T19, H3 (Homo sapiens, UniProt Q9Y5N1).
T19 construct: purchased NIMH Psychoactive Drug Screening Program (PDSP), University of North Carolina-Chapel Hill
T19 sequence (Q9Y5N1 whole entry): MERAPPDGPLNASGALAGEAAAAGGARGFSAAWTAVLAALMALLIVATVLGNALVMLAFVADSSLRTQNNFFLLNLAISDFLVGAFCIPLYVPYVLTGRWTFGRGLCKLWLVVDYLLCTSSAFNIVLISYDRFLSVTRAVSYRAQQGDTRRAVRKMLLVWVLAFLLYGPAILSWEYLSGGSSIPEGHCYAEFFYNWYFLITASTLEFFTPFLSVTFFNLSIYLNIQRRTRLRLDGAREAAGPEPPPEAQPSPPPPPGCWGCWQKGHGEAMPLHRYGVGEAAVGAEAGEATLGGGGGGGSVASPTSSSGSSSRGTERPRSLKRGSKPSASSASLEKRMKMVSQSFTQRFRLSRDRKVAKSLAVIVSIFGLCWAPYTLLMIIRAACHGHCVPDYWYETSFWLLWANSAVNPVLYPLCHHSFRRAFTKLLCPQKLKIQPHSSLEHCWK
Kind of test: PDSP binding, primary screen. On the procedure:
as §1, §2

Another test deals with T20, 5-HT1A (Homo sapiens, UniProt P08908).
T20 construct: purchased NIMH Psychoactive Drug Screening Program (PDSP), University of North Carolina-Chapel Hill
T20 sequence (P08908 whole entry): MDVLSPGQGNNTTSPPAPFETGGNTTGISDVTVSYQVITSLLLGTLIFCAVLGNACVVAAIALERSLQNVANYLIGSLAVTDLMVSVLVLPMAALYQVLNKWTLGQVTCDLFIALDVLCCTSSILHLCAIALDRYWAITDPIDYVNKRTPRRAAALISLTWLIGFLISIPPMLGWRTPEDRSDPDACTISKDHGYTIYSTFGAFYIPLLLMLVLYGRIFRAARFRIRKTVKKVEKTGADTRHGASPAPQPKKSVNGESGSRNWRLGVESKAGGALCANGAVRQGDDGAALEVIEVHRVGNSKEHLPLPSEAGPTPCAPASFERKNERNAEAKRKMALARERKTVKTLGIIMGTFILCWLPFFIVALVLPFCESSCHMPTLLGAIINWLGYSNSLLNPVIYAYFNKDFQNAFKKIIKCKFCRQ
In words: PDSP binding, primary screen. On the procedure: as §1, §2

The target in another test is T21, Beta2 (Homo sapiens, UniProt P07550).
T21 construct: purchased NIMH Psychoactive Drug Screening Program (PDSP), University of North Carolina-Chapel Hill
T21 sequence (P07550 whole entry): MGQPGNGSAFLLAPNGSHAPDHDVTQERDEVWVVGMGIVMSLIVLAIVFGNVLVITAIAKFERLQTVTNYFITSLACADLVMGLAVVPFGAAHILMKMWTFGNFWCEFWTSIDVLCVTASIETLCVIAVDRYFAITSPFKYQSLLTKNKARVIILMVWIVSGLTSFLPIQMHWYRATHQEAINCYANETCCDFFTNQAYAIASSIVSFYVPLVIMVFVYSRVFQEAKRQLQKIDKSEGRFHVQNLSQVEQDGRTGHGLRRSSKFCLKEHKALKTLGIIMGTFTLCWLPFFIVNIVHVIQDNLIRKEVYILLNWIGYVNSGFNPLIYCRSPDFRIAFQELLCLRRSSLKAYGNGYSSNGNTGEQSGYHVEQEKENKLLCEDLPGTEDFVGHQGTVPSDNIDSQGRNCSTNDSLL
Kind of test: PDSP binding, primary screen. The protocol: as §1, §2

A further test has as its system TAAR1-KO mice. In words: Cocaine-induced locomotor activity, co-injection, TAAR1-KO mice. The class given is in vivo. As to conditions: 5, 15 and 25 mg/kg co-injected with cocaine 10 mg/kg. The protocol: (§3) The Taarl^-/- (TAAR1-KO) mice were obtained from Lundbeck ([Wolinsky et al., 2007]). All wild type (WT) and TAAR1-KO mice used for experiments were generated from TAAR1-KO heterozygous mice in a C57BL/6J x 129S1/Sv mixed background.
Experimentally naïve mice, of at least 12 weeks of age, were used for all behavioral experiments. The mice were randomly assigned to treatment or control groups, balanced by sex and weight. Locomotor activity was assessed using the automated locomotor analysis monitors (Omnitech Electronics, Columbus, OH, United States). The apparatus included four open field monitors. Each Open Field monitor consisted of sets of 16 light beams arrayed in the horizontal X and Y axes. The hardware detected beams broken by the animal, which allowed the software to determine the location of the mouse in the cage. Total distance covered by mice was used to characterize locomotor activity of the animals. The monitors were divided into four compartments (20 cm × 20 cm). Animals were tested individually for defined periods with 5-min intervals. The mice were first weighed and then placed into the apparatus, allowing for 30 min habituation. […] The locomotor activity was then measured for additional 1 h. […]
The locomotor activity was assessed for 60 min following the injection. […]

The subject of test [1] is WT littermates (C57BL/6J × 129S2/Sv). In words: Amphetamine-induced locomotor activity, co-injection, WT littermates. The class given is in vivo, mice. The following applies: 5 mg/kg co-injected with amphetamine 2 mg/kg, p = 0.049. The protocol: as §3
Experimentally naïve mice, of at least 12 weeks of age, were used for all behavioral experiments. The mice were randomly assigned to treatment or control groups, balanced by sex and weight. Locomotor activity was assessed using the automated locomotor analysis monitors (Omnitech Electronics, Columbus, OH, United States). The apparatus included four open field monitors. Each Open Field monitor consisted of sets of 16 light beams arrayed in the horizontal X and Y axes. The hardware detected beams broken by the animal, which allowed the software to determine the location of the mouse in the cage. Total distance covered by mice was used to characterize locomotor activity of the animals. The monitors were divided into four compartments (20 cm × 20 cm). Animals were tested individually for defined periods with 5-min intervals. The mice were first weighed and then placed into the apparatus, allowing for 30 min habituation. Following the habituation, the mice were removed from the al apparatus and injected with drugs (see below for administration) or vehicle and returned immediately to the locomotor chamber.

T18 sequence (P28335 33-458): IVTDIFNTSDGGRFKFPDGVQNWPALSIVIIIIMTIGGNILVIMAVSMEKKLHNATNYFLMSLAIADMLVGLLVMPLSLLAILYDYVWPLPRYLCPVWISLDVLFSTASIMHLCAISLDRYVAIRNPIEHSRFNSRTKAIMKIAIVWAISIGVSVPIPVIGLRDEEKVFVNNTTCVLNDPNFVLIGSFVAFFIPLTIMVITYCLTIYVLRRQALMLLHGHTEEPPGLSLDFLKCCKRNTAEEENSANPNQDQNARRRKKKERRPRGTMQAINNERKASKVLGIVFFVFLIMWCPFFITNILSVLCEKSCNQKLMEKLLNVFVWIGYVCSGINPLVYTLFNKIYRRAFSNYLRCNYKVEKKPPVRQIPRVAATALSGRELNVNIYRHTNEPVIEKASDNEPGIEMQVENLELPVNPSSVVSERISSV
T17 sequence (P35368 whole entry): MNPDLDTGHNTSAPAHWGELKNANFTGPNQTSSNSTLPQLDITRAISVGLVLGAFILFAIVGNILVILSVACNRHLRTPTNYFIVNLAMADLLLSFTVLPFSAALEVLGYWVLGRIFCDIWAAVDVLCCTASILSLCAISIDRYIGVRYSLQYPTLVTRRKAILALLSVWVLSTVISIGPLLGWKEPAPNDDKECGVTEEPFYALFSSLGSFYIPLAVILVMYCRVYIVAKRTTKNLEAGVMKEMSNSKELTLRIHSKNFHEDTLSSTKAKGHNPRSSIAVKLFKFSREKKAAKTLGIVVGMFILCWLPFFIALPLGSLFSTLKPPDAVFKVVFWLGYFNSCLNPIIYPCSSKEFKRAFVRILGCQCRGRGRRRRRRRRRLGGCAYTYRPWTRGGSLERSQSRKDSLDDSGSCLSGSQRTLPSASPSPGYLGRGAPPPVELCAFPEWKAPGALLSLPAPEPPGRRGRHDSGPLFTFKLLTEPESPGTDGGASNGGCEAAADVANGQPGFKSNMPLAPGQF

A word on the inhibition: it is the change of the read-out against control, counted positive when it falls. `Clc1ccc(CNCc2ccc(Cn3cncn3)cc2)c(Cl)c1` [compound 22]: the inhibition at 10 µM on 5-HT7 is 20.2%; on SERT it was 57.3%; at D4, 17.6%; at Alpha1A, -13.9%; on Alpha2B, 22.6%; at D1 it was 16.1%. Moreover, the inhibition at 10 µM is 36.7% on D2; 7.1% at M2; 15.5% on M3; 15.9% at M4; 6.3% on H1; -10.2% on KOR. The inhibition at 10 µM on Sigma 1 is 93.2%; at 5-HT3, 6%; on 5-HT2A, 2.1%; on D5 it was -6.8%; on Alpha1B, 12.8%; at 5-HT2C, 18.5%. Besides, the values for the inhibition at 10 µM at H3, at 5-HT1A and at Beta2 were 17.8%, 9.3% and -0.6%, respectively. Further, the “effect on locomotor stimulating effects of cocaine” value in the test with TAAR1-KO mice was “significantly potentiate”. The “potentiation of amphetamine locomotor response” value in test [1] stood at 44%.
